Reference: patent US20200031811A1, “SUBSTITUTED MONO- AND POLYAZANAPHTHALENE DERIVATIVES AND THEIR USE” (Basilea Pharmaceutica International AG, priority 2015, published 2020)

Assays:
MNK1 = biological target: T1, MNK1 (Homo sapiens, UniProt Q9BUB5); experiment: MNK inhibition assay (Z-Lyte kinase assay, Ser/Thr 7 peptide); type: biochemical; details: for IC50: recombinant GST-MNK1, 3 hours at 31° C.; for inhibition at 1 µM: read-out: Inhibition of MNK1 activity at indicated concentration
T1 construct: purchased Life Technologies or Carna Biosciences PV6023 or 02-145; host or cells: baculovirus infected insect cells
T1 sequence (Q9BUB5 whole entry): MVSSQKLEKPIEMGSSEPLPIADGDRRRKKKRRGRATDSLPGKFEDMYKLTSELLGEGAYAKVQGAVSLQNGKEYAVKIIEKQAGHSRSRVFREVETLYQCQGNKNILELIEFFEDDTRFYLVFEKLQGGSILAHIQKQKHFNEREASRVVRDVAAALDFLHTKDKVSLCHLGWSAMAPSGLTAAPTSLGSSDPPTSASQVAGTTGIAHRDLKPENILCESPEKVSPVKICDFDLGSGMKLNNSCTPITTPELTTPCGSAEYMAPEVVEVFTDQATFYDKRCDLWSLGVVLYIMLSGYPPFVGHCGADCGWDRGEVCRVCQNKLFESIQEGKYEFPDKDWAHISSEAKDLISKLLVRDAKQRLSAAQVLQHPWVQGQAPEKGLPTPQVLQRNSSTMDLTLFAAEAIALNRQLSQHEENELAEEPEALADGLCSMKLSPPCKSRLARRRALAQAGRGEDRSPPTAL
In short: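 Recombinant GST-MNK1 from baculovirus-infected insect cells, Z-Lyte Ser/Thr 7 peptide, enzyme set for ~30% phosphorylation in buffer-only wells; 3 hours at 31° C. Compounds at 50–10000 nM (potent ones down to 0.5 nM), at least duplicate. IC50 from % substrate phosphorylation versus buffer-only wells, fluorescence read-out.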

[1] = tested on: human pancreatic cancer cell line MiaPaCa2 (ATCC CRL-1420); experiment: Cell growth assay (CellTiterGlo, 72 hours); type: cell-based; details: for IC50: MIA PaCa-2, MiaPaCa2 cells, 72 hours, read-out: IC50 MiaPaCa; for inhibition at 100 µM: MIA PaCa-2, at 100 μM
In short: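 MiaPaCa2 cells (10^3/well) seeded in supplemented DMEM overnight, then exposed in quadruplicate to compound at 100 down to 0.1 μM for 72 h at 37° C. Growth read by CellTiterGlo luminescence, medium-only background subtracted, normalised to untreated cells; IC50 = concentration reducing growth to 50%.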

[2] = tested on: HCT116 colon carcinoma xenograft; details: nude mice; cited from earlier work
[3] = tested on: B16 melanoma pulmonary metastatic lesions; details: in vivo; cited from earlier work
[4] = read-out: Inhibition of MiaPaCa growth at indicated concentration

| Structure (SMILES) | IC50 (MNK1) | IC50 [1] | also measured |
| --- | --- | --- | --- |
| Oc1ccc(-c2cncc3ccc(CN4CCC(O)CC4)cc23)cc1 [Example 23] | 2360 nM | 30600 nM | – |
| CN(c1ccc2cncc(-c3cc4ccccc4o3)c2c1)C1CCNCC1 [Example 211] | 425 nM | 5570 nM | – |
| CC(=O)C1=C(O)C=C2Oc3c(C(N)=O)c(O)cc(O)c3[C@]2(C)C1=O [cercosporamidc] | – | – | growth of a HCT116 colon carcinoma xenograft model [2]: inhibiting the growth; outgrowth of B16 melanoma pulmonary metastatic lesions [3]: reduceing the outgrowth |
| COc1cnccc1NCc1ccc2cncc(-c3cc4ccccc4o3)c2c1 [Example 72] | 12 nM | 5080 nM | – |
| NC1CCC(NCc2ccc3cncc(-c4ccc(O)cc4)c3c2)C1 (stereo not drawn) [Example 42, 4-[6-[[(3-Aminocyclopentyl)amino]methyl]-4-isoquinolyl]phenol] | 496 nM | – | inhibition at 50 µM ([1]; MIA PaCa-2, at 50 μM, read-out: Inhibition of MiaPaCa growth at indicated concentration): 44% |
| CC(=O)Nc1ccc(-c2cncc3ccc(CN4CCC(N)CC4)cc23)cc1 [Example 18, N-[4-[6-[(4-Amino-1-piperidyl)methyl]-4-isoquinolyl]phenyl]acetamide] | 459 nM | 30400 nM | – |
| N[C@H]1CC[C@H](Oc2ccc3cncc(-c4cc5ccccc5o4)c3c2)CC1 [Example 79, 4-[[4-(Benzofuran-2-yl)-6-isoquinolyl]oxy]cyclohexanamine] | 401 nM | 4720 nM | – |
| Nc1ccc[n+](Cc2ccc3cncc(-c4cc5ccccc5o4)c3c2)c1 [Example 56] | 143 nM | – | inhibition at 100 µM [1, 4]: 85% |
| COc1cc(O[C@H]2CC[C@H](N)CC2)cc2c(-c3ccccc3)cnc(N)c12 [Example 321] | 175 nM | 1310 nM | – |
| Nc1ncc(-c2cc3ccccc3o2)c2cc(O[C@H]3CC[C@H](N)CC3)cc(Cl)c12 [Example 318, trans-6-(4-Aminocyclohexoxy)-4-(benzofuran-2-yl)-8-chloro-isoquinolin-1-amine] | 296 nM | 3800 nM | – |
| FC(F)(F)c1cnccc1NCc1ccc2cncc(-c3cc4ccccc4o3)c2c1 [Example 77] | 1130 nM | 10000 nM | – |
| NC1CCN(Cc2ccc3cncc(-c4cc5ccccc5[nH]4)c3c2)CC1 [Example 6] | 917 nM | 6050 nM | – |
| Nc1ncc(-c2cc(F)cc(F)c2)c2cc(CN3CCC(N)CC3)ccc12 [Example 222] | 1910 nM | 3500 nM | – |
| Nc1ncc(-c2cccc(Cl)c2)c2cc(CN3CCC(N)CC3)ccc12 [Example 216] | 1110 nM | 2520 nM | – |
| Nc1cc[n+](Cc2ccc3cncc(-c4ccc(NC(=O)Nc5ccccc5)cc4)c3c2)cc1 [Example 124] | 2080 nM | 45800 nM | – |
| NC1CCN(Cc2ccc3nncc(-c4ccc(O)cc4)c3c2)CC1 [Example 86] | 174 nM | – | inhibition at 100 µM [1, 4]: 50% |
| NC(=O)c1ccc(-c2cncc3ccc(CN4CCC(N)CC4)cc23)cc1 [Example 20, 4-[6-[(4-Amino-1-piperidyl)methyl]-4-isoquinolyl]benzamide] | – | – | inhibition at 1 µM (MNK1): 45%; inhibition at 100 µM [1, 4]: 62% |

Second part, led by results:

| IC50 (MNK1) | IC50 [1] | Structure (SMILES) | also measured |
| --- | --- | --- | --- |
| 473 nM | 3300 nM | Nc1ncc(-c2ccc(Cl)cc2)c2cc(CN3CCC(N)CC3)ccc12 [Example 215] | – |
| 89 nM | 8360 nM | NC1CCN(Cc2ccc3cncc(-c4cc5ccccc5o4)c3n2)CC1 [Example 300, 1-[[8-(Benzofuran-2-yl)-1,6-naphthyridin-2-yl]methyl]piperidin-4-amine] | – |
| 767 nM | 30400 nM | NC1CCN(Cc2ccc3cncc(-c4cc5cccnc5o4)c3c2)CC1 [Example 273, 1-[(4-Furo{2,3-b}pyridin-2-yl-6-isoquinolyl)methyl]piperidin-4-amine] | – |
| 149 nM | 3570 nM | COc1cc(CN2CCC(N)CC2)cc2c(-c3cc4ccccc4o3)cnc(N)c12 [Example 258, 6-[(4-Amino-1-piperidyl)methyl]-4-(benzofuran-2-yl)-8-methoxy-isoquinolin-1-amine] | – |
| 432 nM | 5730 nM | COc1cc(CN2CCC(N)CC2)cc2c(-c3ccccc3)cncc12 [Example 246] | – |
| – | 10100 nM | COC(=O)c1ccc(-c2cncc3ccc(CN4CCC(N)CC4)cc23)cc1 [Example 11] | inhibition at 1 µM (MNK1): 33% |
| 334 nM | 26000 nM | N#Cc1ccc(-c2cncc3ccc(CN4CCC(N)CC4)cc23)cc1 [Example 4] | – |
| 61 nM | 4430 nM | N[C@H]1CC[C@H](Oc2ccc3cncc(-c4ccccc4)c3c2)CC1 [Example 309] | – |
| 17 nM | 7000 nM | Cc1cnccc1NCc1ccc2cncc(-c3cc4ccccc4o3)c2c1 [Example 69] | – |
| 32 nM | 12200 nM | Fc1cnccc1NCc1ccc2cncc(-c3cc4ccccc4o3)c2c1 [Example 70] | – |
| 92 nM | 7140 nM | c1ccc2oc(-c3cncc4ccc(NCc5ccncc5)cc34)cc2c1 [Example 147, 4-(Benzofuran-2-yl)-N-(4-pyridylmethyl)isoquinolin-6-amine] | – |
| 268 nM | 20000 nM | c1ccc2oc(-c3cncc4ccc(OCc5ccncc5)cc34)cc2c1 [Example 146, 4-(Benzofuran-2-yl)-6-(4-pyridylmethoxy)isoquinoline] | – |
| 1050 nM | 11500 nM | NC1CCN(Cc2ccc3cncc(-c4ccc5cnccc5c4)c3c2)CC1 [Example 193] | – |
| 87 nM | 7440 nM | Nc1cc(CNc2ccc3cncc(-c4cc5ccccc5o4)c3c2)ccn1 [Example 190, N-[(2-Amino-4-pyridyl)methyl]-4-(benzofuran-2-yl)isoquinolin-6-amine] | – |
| 180 nM | 3790 nM | N[C@H]1CC[C@H](Nc2cc(Cl)c3cncc(-c4cc5ccccc5o4)c3c2)CC1 [Example 142, N4-[4-(Benzofuran-2-yl)-8-chloro-6-isoquinolyl]cyclohexane-1,4-diamine] | – |
| 797 nM | 16300 nM | NC1CCN(Cc2ccc3cncc(-c4ccc5ccncc5c4)c3c2)CC1 [Example 194] | – |
| 159 nM | 4870 nM | Nc1ncc(-c2ccccc2)c2cc(CN3CCC(N)CC3)cc(Cl)c12 [Example 257] | – |
| 5.4 nM | 7250 nM | c1ccc2oc(-c3cncc4ccc(CNc5ccnc6[nH]ccc56)cc34)cc2c1 [Example 272, N-[[4-(Benzofuran-2-yl)-6-isoquinolyl]methyl]-1H-pyrrolo[2,3-b]pyridin-4-amine] | – |
| 256 nM | 47700 nM | N#Cc1cc(CN2CCC(N)CC2)cc2c(-c3ccccc3)cncc12 [Example 307] | – |
| 318 nM | – | Oc1ccc(-c2cnnc3ccc(CN4CCNCC4)cc23)cc1 [Example 85] | inhibition at 100 µM [1, 4]: 33% |
| 558 nM | 20600 nM | NCc1cccc(Nc2ccc3cncc(-c4cc5ccccc5o4)c3c2)c1 [Example 136] | – |
| 536 nM | 5660 nM | NC1CCN(Cc2cc3c(-c4cc5ccccc5o4)cncc3c(Cl)c2Cl)CC1 [Example 280, 1-[[4-(Benzofuran-2-yl)-7,8-dichloro-6-isoquinolyl]methyl]piperidin-4-amine] | – |
